The target in this assay is T1, Prostate-specific membrane antigen (PSMA) (Homo sapiens, UniProt Q04609).
T1 construct: gene FOLH1; native full-length membrane protein on intact LNCaP prostate cancer cells; homodimer (known biology)
Put plainly: competitive radioligand binding, LNCaP cells, filter plates. The format is cell-based. The following applies: 0.75 nM [68Ga]Ga-PSMA-10 tracer, room temperature, 45 min; non-labelled ligand (no metal). From the text: competitive radioligand binding, LNCaP cells, filter plates on Prostate-specific membrane antigen (PSMA)

SMILES strings stand for the structures.

T1 sequence (Q04609 whole entry): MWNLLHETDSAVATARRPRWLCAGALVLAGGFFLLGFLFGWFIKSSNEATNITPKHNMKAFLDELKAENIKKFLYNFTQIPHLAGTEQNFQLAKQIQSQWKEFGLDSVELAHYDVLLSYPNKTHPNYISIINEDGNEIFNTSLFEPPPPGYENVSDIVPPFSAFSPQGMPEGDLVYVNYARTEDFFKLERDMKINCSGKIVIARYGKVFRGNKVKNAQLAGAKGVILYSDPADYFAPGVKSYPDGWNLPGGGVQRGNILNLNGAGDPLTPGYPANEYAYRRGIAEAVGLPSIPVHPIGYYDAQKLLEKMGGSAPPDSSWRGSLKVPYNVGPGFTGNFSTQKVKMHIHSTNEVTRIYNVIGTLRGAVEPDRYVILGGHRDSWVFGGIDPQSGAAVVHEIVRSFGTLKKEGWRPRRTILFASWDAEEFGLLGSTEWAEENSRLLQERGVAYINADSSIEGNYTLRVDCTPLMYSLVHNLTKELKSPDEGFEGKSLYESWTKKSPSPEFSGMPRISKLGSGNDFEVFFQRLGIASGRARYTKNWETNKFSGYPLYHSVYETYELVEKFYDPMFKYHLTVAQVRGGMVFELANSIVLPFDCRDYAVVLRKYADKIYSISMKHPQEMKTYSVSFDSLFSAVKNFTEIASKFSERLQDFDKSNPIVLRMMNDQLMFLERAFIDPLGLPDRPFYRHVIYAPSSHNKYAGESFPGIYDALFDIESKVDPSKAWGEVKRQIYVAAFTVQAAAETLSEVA

On to `O=C(O)CCc1ccc(O)c(CN(CCN(CC(=O)O)Cc2cc(CCC(=O)NCCCCCC(=O)NCCCC[C@H](NC(=O)N[C@@H](CCC(=O)O)C(=O)O)C(=O)O)ccc2O)CC(=O)O)c1` [PSMA-11], for which the IC50 – broadly, the concentration that gives 50% inhibition – is 26.2 ± 2.4 nM.
Then `CN(CC(=O)O)C1(CCCCC(=O)NCCNc2c(NCCCC[C@H](NC(=O)N[C@@H](CCC(=O)O)C(=O)O)C(=O)O)c(=O)c2=O)CN(CC(=O)O)CCN(CC(=O)O)C1` [compound 14, DATA^5m.SA.KuE], with 51.1 ± 5.5 nM.

The values are drawn from article PMC8588462, “Hybrid Chelator-Based PSMA Radiopharmaceuticals: Translational Approach” (Molecules, 2021).
